Source: US20130184316A1, “METHODS FOR DIAGNOSING AND TREATING CONCUSSIVE DISORDERS” (priority 2010, published 2013)

Legend:
subject with PCS [1] = experiment: Neurofeedback evaluation; assay type: in vivo, human; conditions: following treatment of 4AP
subject with PCS [2] = experiment: Single subject double blind placebo controlled trial of 4AP with open-label rounds, overall findings; assay type: in vivo, human
Description: (§1) A single subject, prospective, double blind, placebo controlled trial of 4AP was then conducted in this individual. IRB approvals were obtained from all participating institutions and Subject gave written informed consent for all parts of the study. After a 4-week medication washout period, the Subject was randomly assigned a week's course of placebo, followed by a weeklong medication washout period, followed by another week on 4-AP (10 mg twice daily). Based on the medication half-life, a one week washout period was presumed to be sufficient. Subject and assessors were blinded to treatment allocation.
(§2) Measurements conducted at identical times at baseline and on each of the subsequent 3 weeks of the study included: • Balance and mobility assessed by Hi-Mat test (Arch. Phys. Med. Rehabil. 2006, 87(3), 437-442; hereby incorporated by reference in its entirety). • Subjective symptom assessment using the Rivermead Post-Concussion Questionnaire (Clin. Rehabil. 2005, 19(8), 878-887; hereby incorporated by reference in its entirety). • Neuropsychological assessment, consisting of the digit span and cancellation tests from the Wechsler Adult Intelligence Scale, 4th edition (Coalson, D. L., Engi-Raiford, S. Wechsler Adult Intelligence Scale, 4th Ed., in Technical and Interpretive Manual, 4th Ed., San Antonio: Pearson (2008); hereby incorporated by reference in its entirety), the California Verbal Learning Test II (CVLT) (Delis, D. C., Kramer, J. H., Kaplan, E., Ober, B. A. in CVLT-II Manual, San Antonio: The Psychological Corporation (2000); hereby incorporated by reference in its entirety), the Verbal Fluency Test (Connors Continuous Performance Test Computer II Program Version 5 Users Manual, Toronto: Multi-Health Systems, Inc. (2002); hereby incorporated by reference in its entirety), and the Connors Continuous Performance Test (J. Nervous Ment. Dis. 1985, 173(6), 353-357; hereby incorporated by reference in its entirety). • Videonystagmography (VNG) and rotary chair (RC) vestibular testing […]

subject with PCS [3] = experiment: Empiric clinical trial of 4AP, reported symptoms and side effects; assay type: in vivo, human
From the text: The study Subject had persisting stress-induced episodes of weakness and dysequilibrium, along with DBN. A crude phenomenological similarity of these symptoms to EA2 was noted. DNA sequencing of Subject's CACNA1A gene was done; no abnormality was found. Given intractable, persisting, and incapacitating nature of Subject's symptoms and the absence of any therapeutic alternatives, an empiric clinical trial of 4AP was agreed upon. Given subject's history of nephrolithiasis, it was felt that 4AP would be less likely to cause significant adverse reactions than acetazolamide. Subject provided written informed consent.
The Subject was treated by oral administration of 4-AP, starting with a minimal dose of 5 mg. […] Treatment continued for about six months, at which point a wash-out period was initiated.
Side effects (initial blurring of vision, insomnia, and dyspepsia) were mild. Given these clinical results, a prospective, double blind case study was performed.

subject with PCS [4] = experiment: Subjective symptom assessment, Rivermead Post-Concussion Questionnaire; assay type: in vivo, human
Description: as §1, §2

subject with PCS [5] = experiment: Cancellation test, Wechsler Adult Intelligence Scale 4th edition; assay type: in vivo, human
Description: as §1, §2

[6] = test system: cerebellar Purkinje cells; conditions: in vitro, literature; cited from earlier work
demyelinated axons = conditions: experimental and clinical settings, literature; cited from earlier work
subject with PCS [7] = experiment: Abbreviated Abnormal Involuntary Movement Scale (AIMS), blinded raters of video recordings; assay type: in vivo, human
From the text: During testing sessions, study personnel noted relapse of paroxysmal grimacing, weakness, sialorrhea, slurred speech, and slowed responses that the Subject had experienced prior to starting 4AP. In an effort to corroborate the presence of abnormal movements, video recordings of identical testing segments were reviewed by raters, physical, occupational, and speech therapists all with experience working with TBI. Raters were blinded to subject history and study variables. Absent any established rating scales for the unusual phenomenon observed, an abbreviated version of the Abnormal Involuntary Movement Scale (AIMS) was used (Prog. Brain Res. 2007, 161, 327-338; hereby incorporated by reference in its entirety).

[8] = two open phases, extended medication use
[9] = session 5 1st Open: open-label 4AP 10 mg twice daily, 5 weeks after formal study
[10] = session 6 2nd Open: open-label 4AP 10 mg twice daily, 9 weeks after formal study

Nc1ccncc1 [4-AP, 4-Amino pyridine]
Neurofeedback parameters (neurosynchronization, restoration of brain activity) (subject with PCS [1]): dramatic and unexpected improvements | Balance/mobility, symptoms and neuropsychological evaluations (subject with PCS [2]; active phase compared with the other blinded phases (baseline, placebo, washout)): similar | Balance/mobility and subjective symptoms (subject with PCS [2]; [8]): improvement | Cancellation and CVLT: cognitive processing speed and auditory memory (subject with PCS [2]; [8]): improved | Side effects (initial blurring of vision, insomnia, and dyspepsia) (subject with PCS [3]; 10 mg twice daily): mild | Symptoms reported by the Subject (subject with PCS [3]; 10 mg twice daily): significant reduction in all symptoms | Symptoms reported by the Subject (subject with PCS [3]; oral, doses increased to 30 mg per day, lasted for the duration of treatment (about six months)): dramatic improvement in symptoms | Adverse effects observed or reported within 3 hours of administration (subject with PCS [3]; oral, minimal starting dose of 5 mg): No visible adverse effects | Symptom intensity after termination of 4-AP treatment (subject with PCS [3]; wash-out after about six months of treatment): rapid relapse of symptom intensity | Rivermead score (subject with PCS [4]; session 4 Active: blinded, one week on 4-AP 10 mg twice daily, baseline 43, placebo 24, washout 44): 41 | Rivermead score (subject with PCS [4]; [9]): 21 | Rivermead score (subject with PCS [4]; [10]): 7 | Cancellation task percentile (subject with PCS [5]; session 4 Active: blinded, one week on 4-AP 10 mg twice daily, baseline 37, placebo 37, washout 37): 37 percentile | Cancellation task percentile (subject with PCS [5]; [9]): 75 percentile | Cancellation task percentile (subject with PCS [5]; [10]): 84 percentile | Excitability of cerebellar Purkinje cells [6]: increase the excitability | Conduction in demyelinated axons (demyelinated axons): improve conduction | AIMS, active medication phase compared to placebo and washout conditions (subject with PCS [7]; blinded phase, 4-AP 10 mg twice daily for one week): improvement | AIMS Subscale (subject with PCS [7]; session 4 Active: blinded, one week on 4-AP 10 mg twice daily, placebo 15.0, washout 9.5): 4.5
